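Following 48 hours of exposure in 96-well plates, responses at five concentrations were used to interpolate endpoints linearly. TGI: total growth inhibition.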
Experiments:
Assay in all cases: DTP human tumour cell line panel, 48 h
[1] = tested on: 786-0 renal
[2] = tested on: A498 renal
[3] = tested on: A549 NSCLC
[4] = tested on: ACHN renal
[5] = tested on: BT-549 breast
[6] = tested on: CAKI-1 renal
[7] = tested on: COLO 205 colon
[8] = tested on: DU-145 prostate
[9] = tested on: EKVX NSCLC
[10] = tested on: HCC-2998 colon
[11] = tested on: HCT-116 colon
[12] = tested on: HCT-15 colon
[13] = tested on: HL-60(TB) leukemia
[14] = tested on: HOP-62 NSCLC
[15] = tested on: HOP-92 NSCLC
[16] = tested on: HS 578T breast
[17] = tested on: HT29 colon
[18] = tested on: IGROV1 ovarian
[19] = tested on: K-562 leukemia
[20] = tested on: KM12 colon
[21] = tested on: LOX IMVI melanoma
[22] = tested on: M14 melanoma
[23] = tested on: MCF7 breast
[24] = tested on: MDA-MB-231 breast
[25] = tested on: MDA-MB-435
[26] = tested on: MDA-N
[27] = tested on: MOLT-4 leukemia
[28] = tested on: NCI-H226 lung
[29] = tested on: NCI-H23 lung
[30] = tested on: NCI-H460 lung
[31] = tested on: NCI-H522 lung
[32] = tested on: NCI/ADR-RES ovarian
[33] = tested on: OVCAR-3 ovarian
[34] = tested on: OVCAR-4 ovarian
[35] = tested on: OVCAR-5 ovarian
[36] = tested on: OVCAR-8 ovarian
[37] = tested on: PC-3 prostate
[38] = tested on: RPMI-8226 leukemia
[39] = tested on: RXF 393 renal
[40] = tested on: SF-268 CNS
[41] = tested on: SF-295 CNS
[42] = tested on: SF-539 CNS
[43] = tested on: SK-MEL-2 melanoma
[44] = tested on: SK-MEL-28 melanoma
[45] = tested on: SK-MEL-5 melanoma
[46] = tested on: SK-OV-3 ovarian
[47] = tested on: SN12C renal
[48] = tested on: SNB-19 CNS
[49] = tested on: SNB-75 CNS
[50] = tested on: SR leukemia
[51] = tested on: SW-620 colon
[52] = tested on: T-47D breast
[53] = tested on: TK-10 renal
[54] = tested on: U251 CNS
[55] = tested on: UACC-257 melanoma
[56] = tested on: UACC-62 melanoma
[57] = tested on: UO-31 renal
[58] = tested on: CCRF-CEM leukemia
[59] = tested on: MALME-3M melanoma

N#C/C(=C\NC(=S)c1ccncc1)c1nc2ccccc2s1
TGI [1]: > 100 µM
TGI [2]: > 100 µM
TGI [3]: > 100 µM
TGI [4]: > 100 µM
TGI [5]: > 100 µM
TGI [6]: > 100 µM
TGI [7]: > 100 µM
TGI [8]: > 100 µM
TGI [9]: > 100 µM
TGI [10]: > 100 µM
TGI [11]: > 100 µM
TGI [12]: > 100 µM
TGI [13]: > 100 µM
TGI [14]: > 100 µM
TGI [15]: > 100 µM
TGI [16]: > 100 µM
TGI [17]: > 100 µM
TGI [18]: > 100 µM
TGI [19]: > 100 µM
TGI [20]: > 100 µM
TGI [21]: > 100 µM
TGI [22]: > 100 µM
TGI [23]: > 100 µM
TGI [24]: > 100 µM
TGI [25]: > 100 µM
TGI [26]: > 100 µM
TGI [27]: > 100 µM
TGI [28]: > 100 µM
TGI [29]: > 100 µM
TGI [30]: > 100 µM
TGI [31]: > 100 µM
TGI [32]: > 100 µM
TGI [33]: > 100 µM
TGI [34]: > 100 µM
TGI [35]: > 100 µM
TGI [36]: > 100 µM
TGI [37]: > 100 µM
TGI [38]: > 100 µM
TGI [39]: > 100 µM
TGI [40]: > 100 µM
TGI [41]: > 100 µM
TGI [42]: > 100 µM
TGI [43]: > 100 µM
TGI [44]: > 100 µM
TGI [45]: > 100 µM
TGI [46]: > 100 µM
TGI [47]: > 100 µM
TGI [48]: > 100 µM
TGI [49]: > 100 µM
TGI [50]: > 100 µM
TGI [51]: > 100 µM
TGI [52]: > 100 µM
TGI [53]: > 100 µM
TGI [54]: > 100 µM
TGI [55]: > 100 µM
TGI [56]: > 100 µM
TGI [57]: > 100 µM

CCOc1ccc(/C=N/[N+](C)(C)C)cc1OCC
TGI [1]: > 10 µM
TGI [3]: > 10 µM
TGI [4]: > 10 µM
TGI [5]: > 10 µM
TGI [6]: > 10 µM
TGI [58]: > 10 µM
TGI [7]: > 10 µM
TGI [8]: > 10 µM
TGI [10]: > 10 µM
TGI [11]: > 10 µM
TGI [12]: > 10 µM
TGI [14]: > 10 µM
TGI [15]: > 10 µM
TGI [16]: > 10 µM
TGI [17]: > 10 µM
TGI [18]: > 10 µM
TGI [19]: > 10 µM
TGI [20]: > 10 µM
TGI [21]: > 10 µM
TGI [22]: > 10 µM
TGI [59]: > 10 µM
TGI [23]: > 10 µM
TGI [24]: > 10 µM
TGI [25]: > 10 µM
TGI [26]: > 10 µM
TGI [27]: > 10 µM
TGI [29]: > 10 µM
TGI [31]: > 10 µM
TGI [32]: > 10 µM
TGI [33]: > 10 µM
TGI [34]: > 10 µM
TGI [35]: > 10 µM
TGI [36]: > 10 µM
TGI [37]: > 10 µM
TGI [38]: > 10 µM
TGI [40]: > 10 µM
TGI [41]: > 10 µM
TGI [42]: > 10 µM
TGI [44]: > 10 µM
TGI [45]: > 10 µM
TGI [46]: > 10 µM
TGI [47]: > 10 µM
TGI [48]: > 10 µM
TGI [49]: > 10 µM
TGI [50]: > 10 µM
TGI [51]: > 10 µM
TGI [52]: > 10 µM
TGI [53]: > 10 µM
TGI [54]: > 10 µM
TGI [55]: > 10 µM
TGI [56]: > 10 µM

COc1ccc(C(SCCO)(c2ccccc2)c2ccccc2)cc1
TGI [1]: 27 µM
TGI [2]: 33.3 µM
TGI [3]: 24.6 µM
TGI [4]: 27.3 µM
TGI [5]: 32.4 µM
TGI [6]: 32.2 µM
TGI [58]: 64.8 µM
TGI [7]: 27.5 µM
TGI [8]: 27 µM
TGI [9]: 28.3 µM
TGI [10]: 31.1 µM
TGI [11]: 23.7 µM
TGI [12]: 28.7 µM
TGI [13]: 67 µM
TGI [14]: 37.9 µM
TGI [15]: 25.4 µM
TGI [16]: 59.2 µM
TGI [17]: 39.2 µM
TGI [19]: > 100 µM
TGI [20]: 37 µM
TGI [21]: 39.7 µM
TGI [22]: 21.3 µM
TGI [59]: 38.5 µM
TGI [23]: 25 µM
TGI [24]: 31 µM
TGI [25]: 27.1 µM
TGI [26]: 26 µM
TGI [27]: > 100 µM
TGI [28]: 30.2 µM
TGI [29]: 34 µM
TGI [30]: 27.5 µM
TGI [31]: 34.4 µM
TGI [32]: 34.2 µM
TGI [33]: 31.8 µM
TGI [34]: 31.4 µM
TGI [35]: 36.4 µM
TGI [36]: 38.5 µM
TGI [37]: 25.4 µM
TGI [39]: 41 µM
TGI [40]: 31.7 µM
TGI [41]: 28.6 µM
TGI [42]: 30.2 µM
TGI [43]: 28 µM
TGI [44]: 33.6 µM
TGI [45]: 21.7 µM
TGI [46]: 34.8 µM
TGI [47]: 28.4 µM
TGI [48]: 29.1 µM
TGI [49]: 25.7 µM
TGI [50]: > 100 µM
TGI [51]: 81.8 µM
TGI [52]: 27 µM
TGI [53]: 35 µM
TGI [54]: 25.9 µM
TGI [55]: 32.7 µM
TGI [56]: 28.1 µM
TGI [57]: 28.1 µM

c1csc(-c2cc(-c3cccs3)c(-c3cccs3)s2)c1
TGI [1]: > 100 µM
TGI [2]: > 100 µM
TGI [3]: > 100 µM
TGI [4]: > 100 µM
TGI [5]: > 100 µM
TGI [6]: > 100 µM
TGI [58]: > 100 µM
TGI [7]: > 100 µM
TGI [8]: > 100 µM
TGI [9]: > 100 µM
TGI [10]: > 100 µM
TGI [11]: > 100 µM
TGI [12]: > 100 µM
TGI [14]: > 100 µM
TGI [15]: > 100 µM
TGI [16]: > 100 µM
TGI [17]: > 100 µM
TGI [18]: > 100 µM
TGI [19]: > 100 µM
TGI [20]: > 100 µM
TGI [22]: > 100 µM
TGI [59]: > 100 µM
TGI [23]: 66.8 µM
TGI [24]: > 100 µM
TGI [25]: > 100 µM
TGI [26]: > 100 µM
TGI [27]: > 100 µM
TGI [28]: > 100 µM
TGI [29]: > 100 µM
TGI [30]: > 100 µM
TGI [31]: > 100 µM
TGI [32]: > 100 µM
TGI [33]: > 100 µM
TGI [34]: > 100 µM
TGI [35]: > 100 µM
TGI [36]: > 100 µM
TGI [37]: > 100 µM
TGI [39]: > 100 µM
TGI [40]: > 100 µM
TGI [41]: > 100 µM
TGI [42]: > 100 µM
TGI [44]: > 100 µM
TGI [45]: > 100 µM
TGI [46]: > 100 µM
TGI [47]: > 100 µM
TGI [48]: > 100 µM
TGI [49]: > 100 µM
TGI [50]: > 100 µM
TGI [51]: > 100 µM
TGI [52]: 77 µM
TGI [53]: > 100 µM
TGI [54]: > 100 µM
TGI [55]: > 100 µM
TGI [56]: > 100 µM
TGI [57]: > 100 µM
